Results on 1 compound are retold here after patent publication US11498896B2 (The Broad Institute, Inc., priority 2014, dated 2022).

For data set [1], the target named is human D2R/β-arrestin (Homo sapiens (Human), UniProt P14416). As to the kind of experiment: Gi/cAMP agonist assay (Lance Ultra cAMP, forskolin). Type of data set: cell-based. The settings on record: CHO-K1 cells expressing human D2R/β-arrestin; agonist mode, 2.5 μM forskolin. Here is the method: Eu-cAMP tracer solution (10 μl, PerkinElmer, 360 μl of Tracer in 17.64 ml kit buffer) and ULight-anti-cAMP solution (10 μl, 120 μL antibody in 17.88 ml kit buffer) was then added to each well.
human D2R/β-arrestin, sequence (P14416 whole entry): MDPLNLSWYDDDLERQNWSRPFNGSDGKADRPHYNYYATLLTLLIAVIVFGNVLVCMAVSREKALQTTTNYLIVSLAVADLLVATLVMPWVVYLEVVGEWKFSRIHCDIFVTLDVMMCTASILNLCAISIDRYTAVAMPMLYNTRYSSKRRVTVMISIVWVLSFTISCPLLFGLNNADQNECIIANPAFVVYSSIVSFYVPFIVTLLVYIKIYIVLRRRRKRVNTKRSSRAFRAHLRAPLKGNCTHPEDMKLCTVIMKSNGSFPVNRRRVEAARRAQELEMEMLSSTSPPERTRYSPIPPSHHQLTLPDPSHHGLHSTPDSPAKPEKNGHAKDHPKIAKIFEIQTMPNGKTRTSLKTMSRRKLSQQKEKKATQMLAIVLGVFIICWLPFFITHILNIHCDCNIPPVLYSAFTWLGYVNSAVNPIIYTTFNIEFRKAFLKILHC

The nature of data set [2]: Pharmacokinetic and brain distribution study in mice. As to conditions: single intraperitoneal dose 30 mg/kg, male C57BL/6 mice. The class given is in vivo. On the procedure:
Pharmacokinetic Studies on Mice Brains
Twelve male C57BL/6 mice were weighed and administered intraperitoneally with a dose of test compound (Examples 90, 157, 125) solution formulation. The dosing volume administered for the intraperitoneal route was at 10 mL/kg. Blood samples (approximately […]) were collected from retro-orbital plexus of each mouse under light isoflurane anesthesia at 0.08, 0.5, 1, 2, 4, and 8 hr. Following the collection of blood, plasma was also harvested by centrifugation and stored at −70° C. until analysis. After collection of plasma, the animals were euthanized and brain samples were isolated at 0.08, 0.5, 1, 2, 4, and 8 hr. Tissue samples (brain) were homogenized using ice-cold phosphate buffer saline (pH 7.4) and homogenates were stored below −70° C. until analysis. Total homogenate volume was three times the tissue weight. Concentrations of test compound in mouse plasma and brain samples were determined by LC-MS/MS method.
Identical extraction procedures were used for the plasma/brain homogenate study samples and the spiked plasma calibration standards: A 25 μL sample of either study sample (plasma/brain) or spiked calibration standard was added to individual pre-labeled micro-centrifuge tubes. A volume of 100 μL of IS (antipyrine, 500 ng/mL) prepared in acetonitrile was then added to the micro-centrifuge tubes, except in a sample used as a negative control where only acetonitrile was added and vortexed for 5 minutes. Samples were centrifuged for 20 minutes at the speed of 4000 rpm at 4° C. Following centrifugation, 100 μL of the supernatant was sampled from each centrifuge tube and transferred into insert vials. These vials remained within the auto-sampler for the LC/MS/MS analysis. Standards used for calibration were prepared by spiking 10 μL of the test compound in 190 μL of control (used as a negative control) mouse plasma/brain homogenate.
The plasma and brain concentration-time data of test compounds was provided for data analysis. The plasma and brain concentration-time data was then used for the pharmacokinetic analysis. Non-Compartmental-Analysis module in Phoenix® WinNonlin® (Version 6.3) was used to assess the pharmacokinetic parameters. Peak plasma concentrations (Cmax) and time for the peak plasma concentrations (Tmax) were the observed values. The areas under the concentration time curve (AUClast and AUCinf) were calculated by linear trapezoidal rule. The terminal elimination rate constant, ke was determined by regression analysis of the linear terminal portion of the log plasma concentration-time curve.
Illustrative results are presented in FIG. 2, the pharmacokinetic parameters are as follow: […]

The test system of data set [3] is striatal D2/D3. In words: Positron emission tomography with [11C]raclopride. As to conditions: scans 1 hour after administration; in comparison with clozapine. The class given is in vivo, Male Sprague-Dawley rats. Here is the method:
Positron Emission Tomography Studies on Rodents
All animal procedures were performed in accordance with the National Institutes of Health Guide for the Care and Use of Laboratory Animals and were approved by the Massachusetts General Hospital Institutional Animal Care and Use Facility. Male Sprague-Dawley rats (8-14 weeks old, Charles River Labs) were used for the study with animals pair-housed on a diurnal 12:12 light/dark cycle with free access to food and water. […] Respiration of each animal was monitored for the duration of the procedure.
Carbon 11-labeled raclopride ([^11C]RAC) was synthesized from the O-desmethyl RAC precursor and [11C] methyl iodide and subsequently purified by high-performance liquid chromatography as previously described (Farde L, et al. (1985) PNAS, USA 82(11):3863-3867). […] ROI dimensions, placement and striatal D2/D3 binding potential (BPND) were evaluated by graphical analysis using Logan distribution volume ratio (DVR) linearization as previously described (BPND.=DVR-1; Alexoff D, et al. (2002) J Nuc Med 44(5): 815-822; Logan J, et al. (1996) J Cerebral Blood Flow and Metabolism 16(5):[…]).

The subject of data set [4] is mice. As to the kind of experiment: Amphetamine induced hyperactivity (AIH). Type of data set: in vivo. As to conditions: in comparison with vehicle. On the procedure:
Amphetamine Induced Hyperactivity Studies
Amphetamine-induced hyperactivity (AIH) was examined in eight identical open-field chambers (16.5″×16″×12″; AccuScan Instruments, Columbus, Ohio). Activity was detected by infrared beam breaks and recorded automatically by VersaMax software (AccuScan). Daily sessions were automatically binned in 5 minute intervals (VersaDat; AccuSacn) for statistical analysis. AIH was run over three consecutive days as follows:
Day 1: Mice were acclimated to the injection procedure by injecting 30 minutes prior to being placed in the chambers (to match the timing of day 3 compound administration). Mice were then placed into the open-field for 20 minutes and then removed for a saline injection (to match the timing of amphetamine administration on day 3). Mice were placed back into the open-field for an additional 30 minutes, at which point the mice were returned to their home cage.
Day 2 was run identically to Day 1, with the exception that the second day lasted for one hour (20 minutes→injection→40 minutes).
Day 3 was the amphetamine challenge day. Mice were pre-treated with D2 antagonist compounds (compound of Example 90) 30 minutes prior to being placed in the open field. After 20 minutes, mice were removed and challenged with amphetamine, following protocols known to one skilled in the art, for example Jones C. […]

Read-outs that look alike come from different tables or passages of the source.

Usually EC50 stands for the concentration at which the effect is half-maximal. Higher therefore signals a less potent agent. By AUC is commonly meant concentration integrated over time. Usually Cmax stands for the peak of the concentration-time curve.

As for `CC1(Oc2ccc(Cl)cc2)CCN(CCOc2ccccc2C(F)(F)F)CC1` [Compound 90, 4-(4-Chlorophenoxy)-4-methyl-1-(2-(2-(trifluoromethyl)phenoxy)ethyl) piperidine], the EC50 in data set [1] was < 100 nM. Also, in data set [2] (brain), the “Brain AUC” value is 34.2 µM·h and the “Brain Cmax” value was found to be 7230 nM. Moreover, the half-life in data set [2] (mouse, ip, brain, read-out: Brain T1/2 (converted)) is 4.2 h. Further, in data set [2] (mouse, ip, plasma), the AUC came to 4.4 µM·h and the Cmax amounted to 1440 nM. Moreover, in data set [2] (mouse, ip, plasma, read-out: Plasma T1/2 (converted)), the half-life was 4.7 h. Further, the “occupancy in the striatum ([11C]Raclopride PET)” value in data set [3] is on record as “continued high occupancy in the striatum”. The “attenuation of amphetamine induced hyperactivity (AIH)” value in data set [4] is “dose-dependently attenuates AIH in mice and shows efficacy at 30 mg/kg”.
